# Test system: Corticium sasakii (syn. Rhizoctonia solani)
# Assay: Activity against sheath blight on rice caused by Corticium sasakii (protective spray, pot test)
# Assay type: in vivo
# Details: for Efficacy in % of the untreated control: individual active compound, rice, evaluated after 11 days, untreated control 90% infection
# Procedure: The active compounds, separately or jointly, were prepared as a stock solution with 0.25% by weight of active compound in acetone or DMSO. 1% by weight of the emulsifier Uniperol® EL (wetting agent having emulsifying and dispersing action based on ethoxylated alkylphenols) was added to this solution, and the solution was diluted with water to the desired concentration.
# Use example—Activity against sheath blight on rice caused by Corticium sasakii (syn. Rhizoctonia solani) Pots of rice plants of the cultivar “Tai-Nong 67” were sprayed to runoff point with an aqueous suspension having the concentration of active compound stated below. The next day, oat grains infected with Corticium sasakii were placed into the pots (in each case 5 grains per pot). The plants were then placed in a chamber at 26° C. and maximum atmospheric humidity. After 11 days, the sheath blight on the untreated but infected control plants had developed to such an extent that the infection could be determined visually in %.
# Evaluation is carried out by determining the infected plants in percent. These percentages were converted into efficacies.
# The efficacy (E) is calculated as follows using Abbot's formula: E=(1−α/β)·100 α corresponds to the fungicidal infection of the treated plants in % and β corresponds to the fungicidal infection of the untreated (control) plants in % An efficacy of 0 means that the infection level of the treated plants corresponds to that of the untreated control plants; an efficacy of 100 means that the treated plants are not infected.
# The expected efficacies of the mixtures of active compounds are determined using Colby's formula [R. S. Colby, Weeds 15, 20-22 (1967)] and compared with the observed efficacies.
# Colby's formula: E=x+y−x·y/100
# E expected efficacy, expressed in % of the untreated control, when using the mixture of the active compounds A and B at the concentrations a and b x efficacy, expressed in % of the untreated control, when using active compound A at the concentration a y efficacy, expressed in % of the untreated control, when using active compound B at the concentration b
SMILES,Efficacy in % of the untreated control (1 ppm in the spray liquor),Efficacy in % of the untreated control (4 ppm in the spray liquor),"Effectiveness against sheath blight, comparison in words (summary of the test results)"
"CC(Cc1ccc(C(C)(C)C)cc1)CN1C[C@@H](C)O[C@@H](C)C1 (stereo partly drawn) [II, 4-[3-(4-tert-butylphenyl)-2-methylpropyl]-2,6-dimethylmorpholine]",0%,0%,
"CC1CCN(c2c(-c3c(F)cccc3Cl)c(Cl)nc3ncnn23)CC1 (single isomer, unassigned) [A]",0%,0%,
"CC1CCN(c2c(-c3c(F)cccc3Cl)c(Cl)nc3ncnn23)CC1 (single isomer, unassigned) [B]",0%,72%,activity comparable to that of compound I
"CC1CCN(c2c(-c3c(F)cc(F)cc3F)c(Cl)nc3ncnn23)CC1 [I, 5-chloro-7-(4-methylpiperidin-1-yl)-6-(2,4,6-trifluorophenyl)-[1,2,4]tri-azolo[1,5-a]pyrimidine]",33%,67%,

# Source: patent US20070043047A1, “Fungicidal mixtures for controlling rice pathogens” (BASF AKTIENGESELLSCHAFT, priority 2003, published 2007)
